The values that follow come from ChEMBL document CHEMBL1135793 (J Med Chem, 2002).

Molecules are shown by their SMILES. Positions of bridges follow the written chain, without caps; N, C: chain ends. Non-standard residues stand in square brackets, D forms with d. Residues, ends and D or L forms follow the SMILES beside them. Nle = CCCC[C@H](N)C(=O)O Some results are limits rather than exact numbers.

The term IC50 denotes the concentration needed to halve the response being measured.

For the assay, the target named is Urokinase plasminogen activator surface receptor (Homo sapiens, UniProt Q03405). The assay can be described thus: Inhibitory activity against human Urokinase plasminogen activator receptor (uPAR) was determined.
Sequence of Urokinase plasminogen activator surface receptor (Q03405 whole entry): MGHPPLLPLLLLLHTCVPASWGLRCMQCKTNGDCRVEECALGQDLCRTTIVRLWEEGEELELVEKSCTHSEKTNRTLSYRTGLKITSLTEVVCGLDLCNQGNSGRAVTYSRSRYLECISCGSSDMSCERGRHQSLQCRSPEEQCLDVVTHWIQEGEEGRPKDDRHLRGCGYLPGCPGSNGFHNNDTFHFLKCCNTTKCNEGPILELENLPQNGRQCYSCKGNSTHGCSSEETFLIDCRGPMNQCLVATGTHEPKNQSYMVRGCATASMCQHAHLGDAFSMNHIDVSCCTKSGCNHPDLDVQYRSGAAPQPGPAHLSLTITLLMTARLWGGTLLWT
In turn, `CC[C@H](C)[C@@H]1NC(=O)[C@H](CC(N)=O)NC(=O)[C@H](CO)NC(=O)[C@H](Cc2ccccc2)NC(=O)[C@H](Cc2ccc(O)cc2)NC(=O)[C@H](CCCCN)NC(=O)[C@H](CC(N)=O)NC(=O)[C@@H](N)CSSC[C@@H](C(=O)N[C@@H](Cc2c[nH]c3ccccc23)C(=O)O)NC1=O` showed an IC50 of 900 nM.
As to `CC[C@H](C)[C@@H]1NC(=O)[C@H](CC(N)=O)NC(=O)[C@H](CO)NC(=O)[C@H](Cc2ccccc2)NC(=O)[C@H](Cc2ccc(O)cc2)NC(=O)[C@H](CCCCN)NC(=O)[C@@H](CC(N)=O)NC(=O)[C@@H](N)CSSC[C@@H](C(=O)N[C@@H](Cc2c[nH]c3ccccc23)C(=O)O)NC1=O`, the IC50 is greater than 30000 nM.
Then `CC[C@H](C)[C@@H]1NC(=O)[C@H](CC(N)=O)NC(=O)[C@H](CO)NC(=O)[C@H](Cc2ccccc2)NC(=O)[C@H](Cc2cccc3ccccc23)NC(=O)[C@H](CCCCN)NC(=O)[C@H](CC(N)=O)NC(=O)[C@H](N)CSSC[C@@H](C(=O)N[C@@H](Cc2c[nH]c3ccccc23)C(=O)O)NC1=O`, with 50 nM; and `CC[C@H](C)[C@@H]1NC(=O)[C@H](CC(N)=O)NC(=O)[C@@H](CO)NC(=O)[C@H](Cc2ccccc2)NC(=O)[C@H](Cc2ccc(O)cc2)NC(=O)[C@H](CCCCN)NC(=O)[C@H](CC(N)=O)NC(=O)[C@@H](N)CSSC[C@@H](C(=O)N[C@@H](Cc2c[nH]c3ccccc23)C(=O)O)NC1=O`, with greater than 30000 nM.
Regarding `CC[C@H](C)[C@@H]1NC(=O)[C@H](CC(N)=O)NC(=O)[C@H](CO)NC(=O)[C@H](Cc2ccccc2)NC(=O)[C@H](Cc2ccc(O)cc2)NC(=O)[C@H](CCCCN)NC(=O)[C@H](CC(N)=O)NC(=O)[C@H](CO)NC(=O)[C@H](C(C)C)NC(=O)[C@@H](N)CSSC[C@@H](C(=O)O)NC(=O)[C@H](Cc2c[nH]c3ccccc23)NC(=O)[C@H](Cc2c[nH]cn2)NC1=O`, the IC50 was 700 nM.
`CC[C@H](C)[C@@H]1NC(=O)[C@H](CC(N)=O)NC(=O)[C@H](CO)NC(=O)[C@H](Cc2ccccc2)NC(=O)[C@H](Cc2ccc(O)cc2)NC(=O)[C@H](CCCCN)NC(=O)[C@H](CC(N)=O)NC(=O)[C@H](CO)NC(=O)[C@H](C(C)C)NC(=O)[C@H](N)CSSC[C@@H](C(=O)O)NC(=O)[C@H](Cc2c[nH]c3ccccc23)NC(=O)[C@H](Cc2c[nH]cn2)NC1=O` displayed an IC50 of 200 nM.
Then `CC[C@H](C)[C@@H]1NC(=O)[C@H](CC(N)=O)NC(=O)[C@H](CO)NC(=O)[C@H](Cc2ccccc2)NC(=O)[C@H](Cc2ccc3ccccc3c2)NC(=O)[C@H](CCCCN)NC(=O)[C@H](CC(N)=O)NC(=O)[C@H](N)CSSC[C@@H](C(=O)N[C@@H](Cc2c[nH]c3ccccc23)C(=O)O)NC1=O`, with 80 nM; and `CCCC[C@@H]1NC(=O)[C@H](CC(N)=O)NC(=O)[C@H](N)CSSC[C@@H](C(=O)N[C@@H](Cc2c[nH]c3ccccc23)C(=O)O)NC(=O)[C@H]([C@@H](C)CC)NC(=O)[C@H](CC(N)=O)NC(=O)[C@H](CO)NC(=O)[C@H](Cc2ccccc2)NC(=O)[C@H](Cc2ccc(O)cc2)NC1=O` (H-[dC]N[Nle]YFSNICW-OH; disulfide 1-9), with 60 nM; and `CC[C@H](C)[C@@H]1NC(=O)[C@H](CC(N)=O)NC(=O)[C@H](CO)NC(=O)[C@H](Cc2ccccc2)NC(=O)[C@H](Cc2ccc(O)cc2)NC(=O)[C@@H](CCCCN)NC(=O)[C@H](CC(N)=O)NC(=O)[C@@H](N)CSSC[C@@H](C(=O)N[C@@H](Cc2c[nH]c3ccccc23)C(=O)O)NC1=O`, with greater than 30000 nM.
Turning to `CC[C@H](C)[C@@H]1NC(=O)[C@H](CC(N)=O)NC(=O)[C@H](CO)NC(=O)[C@H](Cc2ccccc2)NC(=O)[C@H](Cc2ccc(O)cc2)NC(=O)[C@H](CCCCN)NC(=O)[C@H](CC(N)=O)NC(=O)[C@H](N)CSSC[C@@H](C(=O)N[C@@H](Cc2c[nH]c3ccccc23)C(=O)O)NC1=O`, the IC50 was found to be 40 nM.
Then `CC[C@H](C)[C@@H]1NC(=O)[C@@H](CC(N)=O)NC(=O)[C@H](CO)NC(=O)[C@H](Cc2ccccc2)NC(=O)[C@H](Cc2ccc(O)cc2)NC(=O)[C@H](CCCCN)NC(=O)[C@H](CC(N)=O)NC(=O)[C@@H](N)CSSC[C@@H](C(=O)N[C@@H](Cc2c[nH]c3ccccc23)C(=O)O)NC1=O`, with greater than 30000 nM.
